SMILES strings stand for the structures. Bounds are passed on as bounds.

Melting point data for 87 compounds are collected here from a melting point compilation (Tetko et al.; mined from patent text by program, amines drawn as free bases though some values may be those of a salt).

Consider `COC1CCC2C3CCC4CC(=O)C=CC4(C)C3CCC12C` (configuration not stated), for which the melting point (commonly the temperature, or range, at which the solid turns liquid) is 115 to 117 °C.
`NC(=O)NC[C@@H]1CCCc2cc(S(=O)(=O)c3cccc(F)c3)cc(F)c21` came in with a melting point of 194 °C.
Then `COC(=O)C=C1c2ccccc2C=C(OC)c2sccc21`, with 124 to 125 °C.
Then `Cc1ccc(C2CC(=O)C=C(N)C2)s1` (configuration not stated), with 172 to 173 °C.
The compound `Cc1cc(N(C)C)ccc1-c1c(O)c(=O)c1=O` showed a melting point above 114 °C.
The value for `CCC(=O)Nc1ccc(C2=NN(C(=O)CC)C(C)Cc3cc4c(cc32)OCO4)cc1` (configuration not stated) was 152 to 154 °C.
Then `CCCCCC1CCC(c2ccc(CC(=O)OC)cc2)CC1` (configuration not stated), with 46 to 47 °C; and `Cc1nnc(SCc2ccc(C(=O)N(C)C)cc2)s1`, with 75 to 80 °C; and `COc1cc(C(C)C)c(Oc2c(N)nc(N)nc2C2COC(C)(C)OC2)cc1I`, with 167 to 168 °C.
Then `O=C(O)c1ccc(NC(=O)c2ccncc2)cc1`, with 362 to 365 °C; and `O=C(O)CCCCCCCCCCCNC(=O)OCc1ccccc1`, with 84 to 85 °C; and `CCOC(OCC)C(N)=C(c1ccncc1N)c1ccccc1Cl`, with 94 to 95 °C.
As to `O=[N+]([O-])c1cc(S(=O)(=O)Oc2ccccc2)ccc1Cl`, the melting point is 71 °C.
In the case of `C=C(C(=O)OC(C)(C)C)C(O)c1ccc(C(=O)OC)cc1` (configuration not stated), the melting point is 70 °C.
Then `O=C(Nc1ccc([N+](=O)[O-])c(C(F)(F)F)c1)c1ccccc1SSc1ccccc1C(=O)Nc1ccc([N+](=O)[O-])c(C(F)(F)F)c1`, with 167 to 169 °C.
Then `C[C@@H]1OCCN(c2cc(N3CCOCC3)nc(-n3c(N)nc4ccccc43)n2)[C@@H]1C` (relative stereo), with 118 to 123 °C; and `CCOC(=O)c1nc(C)oc1C(=O)Cl`, with 103 to 105 °C; and `CS(=O)(=O)c1ccc(-c2nc(SCc3ccccc3)[nH]c2-c2ccc(F)cc2)cc1`, with 155 to 156 °C.
In turn, `CCNc1nc(-c2ccc(NC(=O)NCc3cccnc3)cc2)ccc1C(=O)NCCN(C(C)C)C(C)C` returned a melting point of 160 to 162 °C.
Then `FC(F)c1nc2ccccc2n1-c1nc(Nc2ccccn2)nc(N2CCOCC2)n1`, with 230 to 232 °C.
Then `CCCCCCCc1ccnc2c(O)cccc12`, with 92 to 93.5 °C.
The value for `COCCc1sc2ncnc(N)c2c1-c1ccc(NC(=O)Cc2cccc(C)c2)cc1` was 200 to 202 °C.
Compound `CCOC(=O)c1cn(Cc2ccccc2)nc1OCc1ccc(OCc2nc(-c3ccco3)oc2C)c(OCc2ccccc2)c1` displayed a melting point of 127 to 128 °C.
`c1csc(-c2nc(COc3ccc(CCCn4ccnc4)cc3)cs2)c1` displayed a melting point of 76 to 77 °C.
Then `CC1CC(c2ncc3nccc-3[nH]2)C(C)C(c2ccccc2)N1` (configuration not stated), with 131 to 132 °C.
In turn, `COc1ccc(CC(=O)NC(NC(=NC#N)Nc2ccccc2C)C(C)(C)C)cc1OC` (configuration not stated) showed a melting point of 156 to 157 °C.
Then `Cc1ccc(C(=O)Nc2ccc(N3CCOCC3)c(C(F)(F)F)c2)cc1Nc1nccc(-c2cccnc2)n1`, with 216 to 218 °C.
Then `O=C(c1ccc(C2=CCCCC2)cc1)N1Cc2cccn2Cc2ccccc21`, with 66 °C; and `Cc1ccccc1N1CCc2cnc3c(C)cccc3c21`, with 109 to 110 °C; and `CCCCC[C@H]1CC[C@H](c2cnc(C#N)nc2)CC1`, with 83.5 °C.
The compound `CCCN1C(=O)N(CCC)C(=O)C2(CC=C3C(CCC4=Cc5c(cnn5-c5ccc(F)cc5)CC43C)O2)C1=O` (configuration not stated) returned a melting point of 81 to 82 °C.
`COc1ccc2c(OCc3cc(OC)c(F)cc3Br)cccc2c1` came in with a melting point of 138 to 142 °C.
The value for `CC(Oc1ccc(Oc2ccc(C(F)(F)F)cc2)cc1)C(=O)O` (configuration not stated) was 138 to 140 °C; that for `FC(F)(F)c1cccc(C2=CCN(CCc3ccc4[nH]ccc4c3)CC2)c1` was 122 to 123 °C; that for `CCOC(=O)OCCn1nc(-c2cc(C(C)(C)C)c(O)c(C(C)(C)C)c2)c2cccnc21` was 103 to 105 °C.
The value for `CN(CCF)c1nc2cc(NC(=O)c3c(C(=O)N4CC(F)C4)cnn3C)ccn2n1` was 233 to 236 °C.
Take `CC(=O)c1c2c(cc3c1CCC3)CCC2`: the melting point is 69.1 to 76.1 °C.
The value for `COC(=O)c1cccc2c(C=O)c[nH]c12` was 153 to 154 °C; that for `COc1ccc(N(CCC(=O)N(C)CC(=O)O)C(=O)c2ccc(Cl)cc2)cc1` was 129 to 131 °C; that for `CCOP(=O)(OCC)c1ccc(C(=O)O)cc1` was 101 °C.
Then `Cc1cc(SCC#Cc2ccccc2C(F)(F)F)ccc1OCC(=O)O`, with 95 to 97 °C; and `CN1Cc2c(-c3noc(CCl)n3)ncn2-c2ccc(F)c(Cl)c2C1=O`, with 215 to 218 °C; and `COc1ccc2c(c1)c(CC(=O)OCC(=O)O)c(C)n2C(=O)c1ccc(F)c(F)c1`, with 128 to 129 °C.
Then `COc1cc(C(C)C)c2c(c1)S(=O)(=O)N(COC(=O)c1c(C)c3cc(Cl)ccc3n1C)C2=O`, with 183 to 184 °C.
In turn, `C#CCN(C)c1nc(CO)cs1` had a melting point of 69 to 70 °C.
Then `O=C(O)C1=Cc2cc(CO)ccc2OC1CC(F)(F)F` (configuration not stated), with 178 to 181 °C; and `O=C(CCCCNC(=O)c1cn2c3c(cccc13)CCC2)NOCc1ccccc1`, with 154 to 155 °C.
In turn, `Cc1c(-c2ccc(OCC3CC3)cc2)nc2n(Cc3c(F)cccc3F)cc(-c3ccccc3)c(=O)n12` had a melting point of 210 to 214 °C.
The compound `CSc1ccc(C[C@@H](NC(=O)OCc2ccccc2)[C@H](O)C(=O)O)cc1` yielded a melting point of 174 to 177 °C.
`O=C(c1cn(C(c2ccccc2)(c2ccccc2)c2ccccc2)cn1)c1cc(Cl)cc2c1OCOC2` registered a melting point of 175 to 182 °C.
Then `CC(=O)C(C#N)C(=O)C1CC1` (configuration not stated), with 62 to 63.5 °C.
Then `CCCCN1NC(=O)CC2CCc3cc(N)ccc3C21` (configuration not stated), with 140 to 142 °C.
The value for `O=C(Cc1nnn[nH]1)OCc1ccccc1` was 72 to 73 °C; that for `CC(C)c1nc(CCOCc2ccccc2)n(Cc2cccc([N+](=O)[O-])c2)c1Sc1cc(Cl)cc(Cl)c1` was 119 to 122 °C.
As to `COc1c(C(C)(C)C)cc([PH](=O)c2cc(C(C)(C)C)c(OC)c(C(C)(C)C)c2)cc1C(C)(C)C`, the melting point was 166 °C.
The value for `N#CN1c2ccccc2C=Cc2ccccc21` was 108 to 109 °C; that for `O=C1CN(c2cccc(Oc3ccccc3)c2)NC(=O)N1` was 172 to 173 °C; that for `Cc1ccc(S(=O)(=O)OC(C)C(=O)N2CCOCC2)cc1` (configuration not stated) was 75 to 77 °C.
The value for `CC(=O)Nc1cc(Oc2c(Cl)cc(-n3ncc(=O)[nH]c3=O)cc2Cl)ccc1O` was 101 to 109 °C; that for `O=C(c1ccccc1)c1cc(Cl)ccc1CCCN1C(=O)c2ccccc2C1=O` was 94 to 97 °C.
Then `CC(=O)NCCn1ccc(=O)c(OCc2ccccc2)c1C(O)c1ccccc1` (configuration not stated), with 180 to 182 °C; and `O=c1ncnc2cc3[nH][nH]cc3cc12`, with 330 °C; and `OC1CSC(Oc2cncc(-c3cccnc3)c2)C(O)C1O` (configuration not stated), with 203 °C.
In turn, `C=CC[C@@H]1C[C@@H](COc2ccc(-c3ccc(C#N)cc3)cc2)NC1=O` had a melting point of 99 to 101 °C.
Then `CC(C)(C)OC(=O)N1CCN(Cc2nc(-c3cc(C(C)(C)C)c(O)c(C(C)(C)C)c3)cs2)CC1`, with 108 to 109 °C.
Compound `Cc1noc(NS(=O)(=O)c2cccc3c(N(C)C)cccc23)c1Br` had a melting point of 87 to 89 °C.
As to `Nc1csc(-c2ccccc2)c1`, the melting point lay within 76 to 78 °C.
Then `O=C(Nc1ccc(F)cc1F)NC1(c2cccs2)CCCCC1`, with 175 to 177 °C; and `COC(=O)c1c(N(C)C(C)=O)cc(C)cc1N(C)C(C)=O`, with 163 to 164 °C; and `O=C1c2ccccc2COc2ccc(CCO)cc21`, with 78 to 81.5 °C.
Then `CCCc1c(OCCCCCOc2ccc(CCCCC(=O)O)cc2CCC(=O)O)ccc2c1OCCC2=O`, with 101 to 104 °C.
The value for `O=C(NCCCc1ccncc1)N(CCC12CC3CC(CC(C3)C1)C2)C1CCCC1` was 136 to 138 °C; that for `CN(C)OC(=O)C(C)(c1ccc(OCc2ccc3ccccc3n2)cc1)C1CCCCC1` (configuration not stated) was 98 to 99 °C.
The compound `CCn1cnc2c(Nc3cccc(Cl)c3)nc(NCCN)nc21` gave a melting point of 79 to 80 °C.
The value for `O=C(NC(=O)N(SN1CCCCC1=O)c1ccc(Oc2ccc(C(F)(F)F)cc2Cl)cc1F)c1c(F)cccc1F` was 139 to 141 °C; that for `Cc1cc(OCc2ccc(-c3ccccc3-c3nnn(C(c4ccccc4)(c4ccccc4)c4ccccc4)n3)cc2)c(-c2cncnc2)c(C)n1` was 171 to 172 °C; that for `COc1ccc2c(c1)c(OC(C)C)c(C(N)=O)n2C` was 147 to 149 °C.
The value for `CC(C)c1[nH]n(-c2c(Cl)cccc2Cl)c2nc(Cc3ccc(CC(=O)NCCN(C)C)cc3)nc(=O)c1-2` was 170 to 172 °C; that for `COC(=O)NC1=NCC(c2ccc(F)cc2)N1C` (configuration not stated) was 153 to 155 °C; that for `Cn1nc2nnsc2c1Br` was 99 to 101 °C.
The value for `COc1cc(NS(=O)(=O)c2ccc(N3CCNC3=O)cc2)cc(OC)c1` was 200 to 201 °C; that for `CC/C(=C\CCC(O)(CC)CC)c1ccc(CCc2ccc(CO)c(CO)c2)s1` was 77 °C; that for `CC(C)(C(=O)O)C1OCCc2ccccc21` (configuration not stated) was 110 to 116 °C.
`Cc1cc(-c2ccco2)ccc1-c1cc(C(F)(F)F)nn1-c1ccc(S(C)(=O)=O)c(F)c1` displayed a melting point of 77 to 79 °C.
With `CCc1ccc(C(=O)c2ccccc2C(=O)O)c(CC)c1`, the melting point was in the range of 115 to 118 °C.
`N#Cc1nc(C#N)c(C#N)nc1C#N` registered a melting point of 274 to 276 °C.
Then `NC(=NCC(F)(F)F)Nc1ccn(CCO)n1`, with 82 °C.
